We go through seven compounds from patent publication US20080262041A1, “Beta-Lactams for Treatment of Cns Disorders” (priority 2003, published 2008).

Test [1] deals with T1, recombinant human NK1 receptors (Homo sapiens, UniProt P25103).
T1 construct: expressed in transfected cells; host or cells: CHO cells (membranes)
The test is described as follows: NK1 receptor binding affinity, scintillation proximity assay (SPA), displacement of [125I]Tyr8-Substance P. Conditions: average of at least two determinations, CHO cell membranes, read-out: pKi (negative logarithm of the inhibition constant), NK1 receptor SPA binding (converted). An excerpt: NK1-receptor binding affinity has been determined in vitro in a binding Scintillation proximity assay (SPA) by measuring the compounds' ability to displace [^125I]Tyr8-Substance P (SP) from recombinant human NK1 receptors stably expressed in Chinese Hamster Ovary (CHO) cell membranes prepared by using a modification of the method described by Beattie D. T. et al. (Br. J. Pharmacol, 116:3149-3157, 1995). Briefly, polystyrene Leadseeker WGA-SPA beads (Amersham Biosciences) were mixed with cell membranes in a bead/membrane ratio of 50:1 (w/w) in assay buffer (75 mM Tris pH 7.8, 75 mM NaCl, 4 mM MnCl2, 1 mM EDTA, 0.05% Chaps, 1 mM PMSF). The mixture was placed on ice for 30 minutes to allow the formation of membrane/bead complex before BSA was added to a final concentration of 1%. After another 30 minutes incubation on ice, the bead/membrane complex was washed twice and suspended in assay buffer. [^125I]Tyr8-Substance P (2200 Ci/mmol, PerkinElmer) was then added to the bead/membrane complex with a final concentration of 0.4 nM. 30 ul of the resulting mixture was then dispensed to each well of Nalgen NUNC 384-well plate with 1 ul compound pre-dispensed in DMSO. The plates were then sealed and pulse centrifuged at 1100 rpm. After 3 hours incubation at room temperature with shaking, the plates were centrifuged for 2 min at 1100 rpm and measured in Viewlux imager (PerkinElmer) for 5 minutes with a 618-nm filter. Inhibition of [^125I]Tyr8-Substance P binding to NK1-receptors was measured by the reduction of luminescent signal. IC50 values of each compound were determined by an 11-point 3×-dilution inhibition curve. pKi values were calculated using the KD of [^125I]Tyr8-Substance P determined in a separate experiment.
The affinity of the compound of the invention for the NK1 receptor was determined using the NK1 receptor binding affinity method (Scintillation proximity assay (SPA)) measured in vitro by the compounds' ability to displace [^125I]Tyr8-Substance P (SP) from recombinant human NK1 receptors expressed in Chinese Hamster Ovary (CHO) cell membranes. The affinity values are expressed as negative logarithm of the inhibition constant (pKi) of displacer ligands.
A general note: SPA uses beads or plates that emit light when radiolabelled molecules are held near them.

Test [2] addresses T2, recombinant human serotonin transporter (Homo sapiens, UniProt P31645).
T2 construct: expressed in transfected cells; host or cells: porcine LLCPK cells stably transfected with hSERT (membranes)
The test is described as follows: hSERT binding affinity, displacement of [3H]-citalopram. How it is done: SERT binding affinity has been determined in vitro by the compounds' ability to displace [^3H]-citalopram from hSERT-LLCPK cell membranes. For the binding reaction, a final concentration of 0.25 nM of [^3H] citalopram (84 Ci/mmol, Amersham) was incubated with 3-5 μg/ml of cell membrane and the compound to be tested at different concentrations (7 concentration points in duplicate) in 50 mM Tris HCl, pH 7.7, containing 120 mM NaCl, 5 mM KCl, 10 μM pargyline and 0.1% ascorbic acid. The reaction was performed for 120 min at 22° C. and was terminated through GF/B Unifilter (pre-soaked in 0.5% PEI) using a Cell Harvester (Tomtec). Scintillation fluid was added to each filtered spot and radioactivity was determined using a scintillation counter (TopCount (Packard)). Non-specific binding was determined using paroxetine (10 μM) and represents about 2-5% of the total binding. Competition experiments were conducted with duplicate determination for each point. Msat601 software package was used to elaborate the competition binding data. IC50 values were converted to Ki values using the Cheng-Prusoff equation and by using the KD of [^3H]citalopram determined in separate experiments.
The affinity of the compounds of the invention for the serotonin transporter was determined using the hSERT binding affinity method and measuring in vitro the compounds' ability to displace [^3H]-citalopram from recombinant human serotonin transporter expressed in Porcine Epithelial Kidney LLCPK cell membranes. The affinity values are expressed as negative logarithm of the inhibition constant of displacer ligands (pKi).
Background: In a radioligand displacement assay an active substance lowers the binding of a labelled ligand.

[3] abbreviates: average of at least two determinations, [3H]-citalopram, LLCPK cell membranes, read-out: pKi, serotonin transporter binding (converted).

Where two headings read alike, the source gives them in different places.

T2 sequence (P31645 whole entry): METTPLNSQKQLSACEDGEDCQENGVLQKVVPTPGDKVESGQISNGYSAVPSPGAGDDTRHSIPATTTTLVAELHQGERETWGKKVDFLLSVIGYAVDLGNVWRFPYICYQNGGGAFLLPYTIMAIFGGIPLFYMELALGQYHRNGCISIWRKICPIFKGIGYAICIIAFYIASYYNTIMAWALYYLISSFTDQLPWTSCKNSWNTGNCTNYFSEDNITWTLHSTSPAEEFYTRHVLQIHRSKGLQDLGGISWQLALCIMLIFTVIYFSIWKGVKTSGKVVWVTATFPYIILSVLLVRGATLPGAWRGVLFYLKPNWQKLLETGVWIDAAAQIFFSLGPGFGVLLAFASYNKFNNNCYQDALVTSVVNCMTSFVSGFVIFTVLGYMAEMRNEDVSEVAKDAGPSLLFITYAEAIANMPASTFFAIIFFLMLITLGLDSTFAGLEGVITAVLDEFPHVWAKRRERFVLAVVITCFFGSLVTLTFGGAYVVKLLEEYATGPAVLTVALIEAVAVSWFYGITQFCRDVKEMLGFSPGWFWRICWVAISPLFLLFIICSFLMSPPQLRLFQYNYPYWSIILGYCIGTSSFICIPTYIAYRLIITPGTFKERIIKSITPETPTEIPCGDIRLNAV
T1 sequence (P25103 whole entry): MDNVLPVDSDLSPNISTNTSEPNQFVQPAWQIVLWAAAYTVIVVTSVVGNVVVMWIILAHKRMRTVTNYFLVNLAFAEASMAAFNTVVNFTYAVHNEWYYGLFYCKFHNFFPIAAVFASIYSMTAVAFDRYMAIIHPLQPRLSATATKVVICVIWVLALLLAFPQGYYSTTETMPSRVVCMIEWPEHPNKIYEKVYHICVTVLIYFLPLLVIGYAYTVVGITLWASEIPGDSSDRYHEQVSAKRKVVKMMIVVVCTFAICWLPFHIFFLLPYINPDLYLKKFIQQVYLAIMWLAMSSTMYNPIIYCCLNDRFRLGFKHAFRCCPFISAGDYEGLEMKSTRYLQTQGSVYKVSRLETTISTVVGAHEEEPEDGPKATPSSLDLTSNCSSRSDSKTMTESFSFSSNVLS

For the compound `CN1CCC(C2=CCN(Cc3cc(C#N)cc4ccccc34)C2=O)(c2ccc(F)cc2)CC1` [Example 16, 4-({3-[4-(4-Fluorophenyl)-1-methyl-4-piperidinyl]-2-oxo-2,5-dihydro-1H-pyrrol-1-yl}methyl)-2-naphthalenecarbonitrile], the results for the Ki in test [1] and in test [2] were 2.24 to 8.51 nM and 1.26 to 9.12 nM, respectively.

For `CN1CCC(C2=CCN(Cc3cc(Cl)cc(Cl)c3)C2=O)(c2ccc(F)cc2)CC1` [Example 3, 1-[(3,5-Dichlorophenyl)methyl]-3-[4-(4-fluorophenyl)-1-methyl-4-piperidinyl]-1,5-dihydro-2H-pyrrol-2-one], the Ki in test [1] is 2.24 to 8.51 nM; in test [2] it was 1.26 to 9.12 nM.

As to `CC(c1cc(Cl)cc(Cl)c1)N1CC=C(C2(c3ccc(F)cc3)CCNCC2)C1=O` (single isomer, unassigned) [Example 5, 1-[1-(3,5-Dichlorophenyl)ethyl]-3-[4-(4-fluorophenyl)-4-piperidinyl]-1,5-dihydro-2H-pyrrol-2-one], the Ki is 2.24 to 8.51 nM in test [1] and 1.26 to 9.12 nM in test [2] (setting [3]).

As to `CC(c1cc(Cl)cc(Cl)c1)N1CC=C(C2(c3ccc(F)cc3)CCN(C)CC2)C1=O` (single isomer, unassigned) [Example 11, 1-[1-(3,5-Dichlorophenyl)ethyl]-3-[4-(4-fluorophenyl)-1-methyl-4-piperidinyl]-1,5-dihydro-2H-pyrrol-2-one], the values for the Ki in test [1] and in test [2] were 2.24 to 8.51 nM and 1.26 to 9.12 nM, respectively.

For the compound `C[C@@H](c1cc(Cl)cc2ccccc12)N1CC=C(C2(c3ccc(F)cc3)CCNCC2)C1=O` [Example 6, 1-[(1S)-1-(3-Chloro-1-naphthalenyl)ethyl]-3-[4-(4-fluorophenyl)-4-piperidinyl]-1,5-dihydro-2H-pyrrol-2-one], the Ki was 2.24 to 8.51 nM in test [1] and 1.26 to 9.12 nM in test [2] (setting [3]).

With `O=C1C(C2(c3ccc(F)cc3)CCNCC2)=CCN1Cc1cc(Cl)cc(Cl)c1` [Example 1, 1-[(3,5-Dichlorophenyl)methyl]-3-[4-(4-fluorophenyl)-4-piperidinyl]-1,5-dihydro-2H-Pyrrol-2-one], the Ki is 2.24 to 8.51 nM in test [1] and 1.26 to 9.12 nM in test [2] (setting [3]).

For the compound `C[C@H](c1cc(Cl)cc2ccccc12)N1CC=C(C2(c3ccc(F)cc3)CCN(C)CC2)C1=O` [Example 15, 1-[(1R)-1-(3-Chloro-1-naphthalenyl)ethyl]-3-[4-(4-fluorophenyl)-1-methyl-4-piperidinyl]-1,5-dihydro-2H-pyrrol-2-one], the Ki in test [1] is 2.24 to 8.51 nM; in test [2] it was 1.26 to 9.12 nM.
